“Also recorded” adds a separate entry of the source.
How the values were obtained:
[1] = system: cTNT splicing reporter in HeLa cells; experiment: cTNT splicing reporter (exon 5 inclusion) in HeLa cells with or without CUG960 plasmid; type: cell-based; settings: for cTNT exon 5 inclusion: absence of CUG repeats; for Rescue of cTNT exon 5 inclusion: cells expressing 960 CUG repeats
Protocol: (§1) HeLa cells were grown in monolayers in DMEM with GlutaMAX™ (Gibco, Carlsbad, Calif.) and supplemented with 10% fetal bovine serum. Approximately 2.0 (±0.2)×10^5 cells were plated in 6 well plates and transfected 18-20 hours later at 70-90% confluency. 1 μg of plasmid was transfected into each well of cells, using 5 μL of […] (Invitrogen) according to the manufacturer's protocols. For co-transfection, 1 μg of total plasmid was transfected, at 500 ng of each construct. Test compounds were added 4 hours after transfection, when the media was changed. Cells were harvested 18-22 hours after transfection using TrypLE™ reagent (Gibco).
(§2) Immediately following harvesting, RNA was isolated from the cell pellets using an RNeasy® kit (Qiagen, Valencia, Calif.). 500 ng of isolated RNA was DNased with RQI DNase (Promega, Madison, Wis.) according to manufacture's protocol. 100 ng of DNAsed RNA was reverse transcribed with Superscript® II (Invitrogen, Carlsbad, Calif.) and a cTNT-specific reverse primer according to manufacturer's protocols. 30 ng of the reverse transcription reaction was subjected to 22-25 rounds of PCR amplification using cTNT specific primers spiked with a forward primer 5′ end-labeled with [γ-^32P]ATP. Similar methods were used to reverse transcribe and amplify IR and PLEKHH2. […] The resulting PCR products were run on a 6% (19:1) polyacrylamide denaturing gel. The gel was subsequently autoradiographed and quantitation of the radioactive bands was performed using ImageQuant® software.
(§3) The following primer pairs were used. For the cTNT minigene, the forward primer was […] (SEQ ID NO: 1), and the reverse primer was […] (SEQ ID NO: 2). For the IR minigene, the forward primer was […] (SEQ ID NO: 3), and the reverse primer was […] (SEQ ID NO: 4). The underlined sections are for cloning purposes. For the PLEKHH2 minigene, the forward primer was […] (SEQ ID NO: 5), and the reverse primer was […] (SEQ ID NO: 6).
The ability of pentamidine to alter the splicing defects observed in a cell-based model for DM was tested. This was accomplished in a system using cells transformed with a plasmid expressing 960 CUG repeats where the expression of these CUG repeats causes splicing defects similar to those observed in DM cells and DM subjects (Savkur et al., Nature Genet. 29:40-47, 2001).

[2] = system: IR splicing reporter in HeLa cells; experiment: IR splicing reporter (exon 11 inclusion) in HeLa cells with or without CUG960 plasmid; type: cell-based; settings: for Rescue of IR reporter mis-splicing: cells expressing 960 CUG repeats
Protocol: as §1, §2, §3
The ability of pentamidine to alter the splicing defects observed in a cell-based model for DM was tested. […]

[3] = mouse, in vivo
Protocol: Mouse handling and experimental procedures were conducted in accordance with the Association for Assessment and Accreditation of Laboratory Animal Care. HSA^LR transgenic mice in line 20b expressing human skeletal actin mRNA with ˜250 CUG repeats in the 3′ UTR were used (Mankodi et al., Science 289:1769-1772, 2000). Age- and gender-matched HSA^LR mice were injected intraperitoneally with pentamidine or saline (control). For a low-dose regimen, 25 mg/kg of pentamidine was administrated twice daily for 5 days. For a higher-dose regimen, 40 mg/kg of pentamidine was injected once daily for 7 days. Mice were sacrificed one day after the last injection, and vastus muscle was obtained for splicing analysis. […] The PCR products were analyzed on agarose gels and scanned with a laser fluorimager (Typhoon, GE Healthcare, Piscataway, N.J.). Differences between the two groups were evaluated by Student's t-test.
The ability of pentamidine to rescue mis-splicing in a mouse model (HSA^LR) where CUG repeats are expressed was tested. Pentamidine was administered by intraperitoneal injection in two dosage regimens, and mis-splicing of the Clc-1 and Serca1 pre-mRNAs was measured.

[4] = system: Clc-1 pre-mRNA splicing, HSA^LR transgenic mice; experiment: Clc-1 exon 7a splicing in vastus muscle of HSA^LR mouse model of DM; type: in vivo; settings: intraperitoneal, saline HSA^LR control 46±6%, normal mice 94±1%
Protocol: Mouse handling and experimental procedures were conducted in accordance with the Association for Assessment and Accreditation of Laboratory Animal Care. HSA^LR transgenic mice in line 20b expressing human skeletal actin mRNA with ˜250 CUG repeats in the 3′ UTR were used (Mankodi et al., Science 289:1769-1772, 2000). Age- and gender-matched HSA^LR mice were injected intraperitoneally with pentamidine or saline (control). For a low-dose regimen, 25 mg/kg of pentamidine was administrated twice daily for 5 days. For a higher-dose regimen, 40 mg/kg of pentamidine was injected once daily for 7 days. Mice were sacrificed one day after the last injection, and vastus muscle was obtained for splicing analysis. […] PCR amplification was carried out for 22-24 cycles with the following primer pairs: Clc-1 forward, [sequence] (SEQ ID NO: 7), and reverse, [sequence] (SEQ ID NO: 8); Serca1 forward, [sequence] (SEQ ID NO: 9), and reverse, [sequence] (SEQ ID NO: 10). The PCR products were analyzed on agarose gels and scanned with a laser fluorimager (Typhoon, GE Healthcare, Piscataway, N.J.). Differences between the two groups were evaluated by Student's t-test.

[5] = system: CUG960 RNA nuclear foci / MBNL-GFP in HeLa cells; experiment: CUG foci formation and MBNL-GFP sequestration in HeLa cells transfected with MBNL-GFP and CUG960; type: cell-based; settings: 50 μM
Protocol: HeLa cells were plated in 6 well plates onto coverslips pre-treated with poly-L-lysine. Cells were transfected as described in Example 3. For transfection, 50 ng of MBNL-eGFP plasmid and 500 ng of CUG960 plasmid were transfected for each experiment. A total of 1 μg of plasmid DNA was transfected, with the additional amount being empty pcDNA3 vector. After transfection, pentamidine was added and the cells were fixed 16 hours later.
Cells were fixed for 15 min at room temperature (RT) with 4% paraformaldehyde and washed 5 times for 2 min in 1×PBS at RT. Cells were stored at 4° C., if not probed immediately. For fluorescence in situ hybridization, cells were permeabilized with 2% pre-chilled acetone in 1×PBS, at RT for 5 min. Cells were pre-washed with 30% formamide, 2×SSC for 10 min at RT. Cells were then probed for 2 hours at 37° C., with 1 ng/μl Cy3 CAG10 probe (Integrated DNA Technologies, Coralville, Iowa) in 30% formamide, 2×SSC, 0.02% BSA, 66 μg/ml yeast tRNA, 2 mM vanadyl complex. The cells were washed for 30 min in 30% formamide, 2×SSC at 42° C., then with 1×SSC for 30 min at RT. […] MBNL-eGFP was visualized using GFP fluorescence, exciting from 450-490 nm and visualizing at 520 nm. […]
Cells were scored by eye with the following criteria. […] 201 cells were scored for the MBNL-GFP and CUG960 double transfection. 242 cells treated with pentamidine (50 μM) were scored. […]

## N=C(N)c1ccc(OCCCCCOc2ccc(C(=N)N)cc2)cc1 [pentamidine]
[1]; 25 μM
  cTNT exon 5 inclusion: 62%
  Rescue of cTNT exon 5 inclusion: no effect
[1]; 50 μM
  Rescue of cTNT exon 5 inclusion: partial rescue; also recorded: partially rescue the cTNT mis-splicing
[1]; 75 μM
  cTNT exon 5 inclusion: 30%
  Rescue of cTNT exon 5 inclusion: full recovery
[1]; presence of the CUG960 construct
  Concentration giving complete rescue of cTNT missplicing: 75 µM
[2]; 25 μM
  Rescue of IR reporter mis-splicing: partially rescued
[2]; 50 μM
  Rescue of IR reporter mis-splicing: fully rescued; also recorded: fully rescue the IR mis-splicing
[2]; cells lacking the CUG repeats
  Effect on splicing of the IR reporter: did not affect the splicing of the IR reporter
[3]
  Toxicity in mice: substantial toxicity
[4]; 25 mg/kg twice daily for 5 days
  Clc-1 exon 7a exclusion: 63±3%
[4]; 40 mg/kg once daily for 7 days
  Clc-1 exon 7a exclusion: 66±4%
[5]
  Characteristics of CUG RNA foci: the foci became increasingly more diffuse
  MBNL sequestration to foci: partially relieved in many cells
